Test results published in publication PMC6245477, “Discovery of a Novel CCR5 Antagonist Lead Compound Through Fragment Assembly” (Molecules, 2008).

Tests used:
[1] = target: T1, CCR5 (Homo sapiens, UniProt P51681); test: Calcium mobilization assay (RANTES-induced, Fluo-4 AM); assay type: cell-based; settings: for IC50: CHO cells stably expressing CCR5 and Gα16, RANTES 30 nM, read-out: IC50 (antagonistic activity against CCR5); for effect of structural change on potency relative to compound 2: SAR statement from IC50 values
T1 construct: expressed in transfected cells
Protocol: For the primary assay, the percent inhibitory rates of the compounds 1, 2 and 2a-l at 1 μM were measured. Except compounds 2a and 2c, the other twelve compounds were remarkably antagonist of CCR5 activity. Therefore, we determined their IC50 values (Table 1).
CHO cells stably expressing CCR5 and Gα16 were loaded with 2 μmol/L Fluo-4 AM in Hanks balanced salt solution (HBSS, containing KCl 5.4 mM, Na2HPO4 0.3 mM, KH2PO4 0.4 mM, NaHCO3 4.2 mM, CaCl2 1.3 mM, MgCl2 0.5 mM, Mg2SO4 0.6 mM, NaCl 137 mM, BSA 5 g/L, Glucose 5.6 mM, Sulfinpyrazone 250 μM, pH 7.4) at 37 °C for 45 minutes. After the cells being rinsed with the reaction buffer, 50 μL HBSS containing known antagonists (positive control), compounds of interest or DMSO (negative control, final concentration 1%) were added. After incubation at room temperature for 10 minutes, 25 μL RANTES (final concentration 30 nM) was dispensed into the well using a FlexStation II micro-plate reader (Molecular Devices, Sunnyvale, CA, USA) and intracellular calcium change was recorded with an excitation wavelength of 485 nm and emission wavelength of 525 nm. The half maximal inhibitory concentrations (IC50s) of compounds were determined with GraphPad Prism software by constructing their dose-response curves.

T1 sequence (P51681 whole entry): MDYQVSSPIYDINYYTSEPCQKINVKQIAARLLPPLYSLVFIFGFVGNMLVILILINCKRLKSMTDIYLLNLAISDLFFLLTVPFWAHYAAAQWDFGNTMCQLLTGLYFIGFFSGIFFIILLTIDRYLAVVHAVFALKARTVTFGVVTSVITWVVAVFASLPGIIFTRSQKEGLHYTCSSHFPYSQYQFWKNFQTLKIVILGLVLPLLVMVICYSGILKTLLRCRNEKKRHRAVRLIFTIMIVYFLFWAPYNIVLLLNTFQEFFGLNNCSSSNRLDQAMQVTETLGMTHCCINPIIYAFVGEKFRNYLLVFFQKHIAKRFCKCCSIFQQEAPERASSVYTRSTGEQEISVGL

SMILES | melting point | IC50 [1] | effect of structural change on potency relative to compound 2 [1] | fold change of IC50 compared to compound 1 ([1]; ratio of IC50 values, vs compound 1) | fold increase in potency compared with compound 2 ([1]; ratio of IC50 values, vs compound 2)
O=C(N[C@@H](CCN1CCN(c2ccnc3cc(Cl)ccc23)CC1)c1ccccc1)c1ccc(F)cc1 [Compound 2a, N-((S)-3-(4-(7-Chloroquinolin-4-yl)piperazin-1-yl)-1-phenylpropyl)-4-fluorobenzamide] | 77 to 79 °C |  |  |  | 
O=C(N[C@@H](CCN1CCN(c2ncccn2)CC1)c1ccccc1)C1CCC(F)(F)CC1 [Compound 2g, N-((S)-3-(4-(Pyrimidin-2-yl)piperazin-1-yl)-1-phenylpropyl)-4,4-difluorocyclohexanecarboxamide] |  | > 1000 nM |  |  | 
O=C(CCC(=O)N1CCN(c2ccnc3cc(Cl)ccc23)CC1)N1CCN(c2ccnc3cc(Cl)ccc23)CC1 [Compound 1, 1,4-bis(4-(7-chloroquinolin-4-yl)piperazin-1-yl)butane-1,4-dione] |  | 2000 nM |  |  | 
O=C1CCC(C(=O)N[C@@H](CCN2CCN(c3ccnc4cc(Cl)ccc34)CC2)c2ccccc2)CC1 [Compound 2d, N-((S)-3-(4-(7-Chloroquinolin-4-yl)piperazin-1-yl)-1-phenylpropyl)-4-oxocyclohexanecarboxamide] | 56 to 59 °C | > 1000 nM |  |  | 
O=C(N[C@@H](CCN1CCN(c2ncnc3[nH]cnc23)CC1)c1ccccc1)C1CCC(F)(F)CC1 [Compound 2h, N-((S)-3-(4-(9H-Purin-6-yl)piperazin-1-yl)-1-phenylpropyl)-4,4-difluorocyclohexanecarboxamide] |  | > 10000 nM |  |  | 
O=C(N[C@@H](CCN1CCN(c2ccnc3cc(Cl)ccc23)CC1)c1ccccc1)C1CCCCC1 [Compound 2b, N-((S)-3-(4-(7-Chloroquinolin-4-yl)piperazin-1-yl)-1-phenylpropyl)cyclohexanecarboxamide] | 153 to 158 °C | 2660 nM |  |  | 
Cc1ccc(S(=O)(=O)N[C@@H](CCN2CCN(c3ccnc4cc(Cl)ccc34)CC2)c2ccccc2)cc1 [Compound 2f, N-((S)-3-(4-(7-Chloroquinolin-4-yl)piperazin-1-yl)-1-phenylpropyl)-4-methylbenzenesulfonamide] | 132 to 136 °C | > 10000 nM | decrease or loss of potency |  | 
O=C(N[C@@H](CCN1CCN(c2ccnc3cc(Cl)ccc23)CC1)c1ccccc1)C1CCC(F)(F)CC1 [Compound 2, N-((S)-3-(4-(7-Chloroquinolin-4-yl)piperazin-1-yl)-1-phenylpropyl)-4,4-difluorocyclohexanecarbox-amide] |  | 692 nM |  | 3 fold | 
O=C(N[C@@H](CCN1CCN(c2ccc3ccccc3n2)CC1)c1ccccc1)C1CCC(F)(F)CC1 [Compound 2j, N-((S)-3-(4-(Quinolin-2-yl)piperazin-1-yl)-1-phenylpropyl)-4,4-difluorocyclohexanecarboxamide] | 50 to 53 °C | 233 nM |  |  | 3 fold
O=C(N[C@@H](CCN1CCN(c2ccncc2)CC1)c1ccccc1)C1CCC(F)(F)CC1 [Compound 2i, N-((S)-3-(4-(pyridin-4-yl)piperazin-1-yl)-1-phenylpropyl)-4,4-difluorocyclohexanecarboxamide] |  | > 10000 nM |  |  | 
O=C(C1CCC(F)(F)CC1)N1CCN(c2ccnc3cc(Cl)ccc23)CC1 [Compound 2l, (4-(7-chloroquinolin-4-yl)piperazin-1-yl)(4,4-difluorocyclohexyl)methanone] |  | > 1000 nM | nearly leads to a loss of potency |  | 
O=C(NC(CCN1CCN(c2ccnc3cc(Cl)ccc23)CC1)c1ccccc1)C1CCC(F)(F)CC1 (centres unmarked) [Compound 2k, N-(3-(4-(7-Chloroquinolin-4-yl)piperazin-1-yl)-1-phenylpropyl)-4,4-difluorocyclohexanecarboxamide] |  | 669 nM | no effect on potency |  | 
O=C(Cc1ccccc1)N[C@@H](CCN1CCN(c2ccnc3cc(Cl)ccc23)CC1)c1ccccc1 [Compound 2e, N-((S)-3-(4-(7-Chloroquinolin-4-yl)piperazin-1-yl)-1-phenylpropyl)-2-phenylacetamide] | 69 to 72 °C | > 10000 nM |  |  | 
